Series [1] in a line: Antiviral activity against HAV HM175 infected in African green monkey Vero cells assessed as inhibition of virus-induced cytopathic effect measured after 48 hrs by crystal violet staining based assay. In kind it is functional, Human hepatitis A virus, Hu/Australia/HM175/1976.
Series [2] is described as follows: Cytotoxicity against African green monkey Vero cells measured after 48 hrs by crystal violet staining based colorimetric method. It counts as cell-based. As to conditions: chlorocebus sabaeus; for MNTC at 48 h: read-out: MNCC; call rule not given here.
Series [3] in a line: Selectivity index, ratio of CC50 for African green monkey Vero cells to EC50 for HAV HM175 infected in African green monkey Vero cells. It counts as toxicity. The following applies: for selectivity ratio: Vero cells, read-out: Ratio CC50/EC50; for Ratio CC50/EC50: vero.
A short description of series [4]: Antiviral activity against HAV HM175 infected in African green monkey Vero cells assessed as inhibition of virus-induced cytopathic effect at MNCC measured after 48 hrs by crystal violet staining based assay relative to control. It counts as functional, Human hepatitis A virus, Hu/Australia/HM175/1976.
Series [5] in a line: Inhibition of HAV protease 3C expressed in Escherichia coli BL21(DE3) pLysS using Dabcyl-GLRTQSND (edans) G as substrate preincubated for 3 mins before enzyme addition by fluorescence method. Set-up: species or system Hepatovirus A.
In series [6] the test system is Hepatovirus A. Description: Inhibition of HAV protease 3C expressed in Escherichia coli BL21(DE3) pLysS at 100 uM using Dabcyl-GLRTQSND (edans) G as substrate preincubated for 3 mins before enzyme addition by fluorescence method relative to control.
Series [7] deals with Hepatovirus A. Nature of the series: Inhibition of HAV protease 3C expressed in Escherichia coli BL21(DE3) pLysS at 10 uM using Dabcyl-GLRTQSND (edans) G as substrate preincubated for 3 mins before enzyme addition by fluorescence method relative to control.
The subject of series [8] is Hepatovirus A. Description: Inhibition of HAV protease 3C expressed in Escherichia coli BL21(DE3) pLysS at 1 uM using Dabcyl-GLRTQSND (edans) G as substrate preincubated for 3 mins before enzyme addition by fluorescence method relative to control.
Series [9] concerns Hepatovirus A. Nature of the series: Inhibition of HAV protease 3C expressed in Escherichia coli BL21(DE3) pLysS at 0.1 uM using Dabcyl-GLRTQSND (edans) G as substrate preincubated for 3 mins before enzyme addition by fluorescence method relative to control.
Where [10] appears, read: Hepatovirus A, Hu/Australia/HM175/1976, Vero, 48 h, read-out: EC50.

This is an account of results in ChEMBL document CHEMBL4390703, “Anti-HAV evaluation and molecular docking of newly synthesized 3-benzyl(phenethyl)benzo[g]quinazolines” (Bioorg Med Chem Lett, 2019).

The structures appear in SMILES notation.

Take `N#Cc1ccc(CSc2nc3cc4ccccc4cc3c(=O)n2Cc2ccccc2)cc1`: the EC50 in series [1] (setting [10]) was determined as 152 µM. Also, in [2], half-maximal cytotoxicity (CC50 at 48 h) was put at 206 µM and the MNTC at 48 h was determined as 31.2 µg/mL. Moreover, the selectivity ratio in [3] came out at 1.35. Further, the “inhibition (INH)” value in series [4] was 23.82%.
For `Cc1ccccc1CSc1nc2cc3ccccc3cc2c(=O)n1CCc1ccccc1` the same measures were 69.8 µM, 86.8 µM, 15.6 µg/mL, 1.24 and 38.09%.
`NNc1nc2cc3ccccc3cc2c(=O)n1Cc1ccccc1`: the EC50 in series [1] (setting [10]) came out at 27.6 µM. The compound also gave a CC50 at 48 h in series [2] of 291 µM. Further, the MNTC at 48 h in series [2] came out at 15.6 µg/mL. Also, the selectivity ratio in series [3] was found to be 10.5. In [4], the “inhibition (INH)” value turned out to be 63.58%. The same compound returned an IC50 in series [5] of 22.4 to 27.6 µM. Moreover, the inhibition in the series on Hepatovirus A [6] is 73.1%; in the series on Hepatovirus A [7] it was 31.1%; in the series on Hepatovirus A [8], 16.3%; with Hepatovirus A [9], 2.65%.
With `NC12CC3CC(CC(C3)C1)C2` [AMANTADINE], in series [1] (setting [10]), the EC50 worked out at 37.3 µM. Also, the CC50 at 48 h in series [2] came out at 2020 µM. Further, the selectivity ratio in series [3] came out at 54.1. Also, the midpoint of inhibition in series [5], the IC50, lay at 37.2 µM.
As to `O=c1c2cc3ccccc3cc2nc(SCc2ccccc2)n1Cc1ccccc1`, the EC50 in series [1] (setting [10]) amounted to 196 µM. Further, in series [2], the CC50 at 48 h was 419 µM and the MNTC at 48 h was 62.5 µg/mL. In series [3], the selectivity ratio is 2.14. The “inhibition (INH)” value in series [4] is listed as 42.31%.
As for `O=c1c2cc3ccccc3cc2nc(SCc2ccc(Cl)cc2)n1CCc1ccccc1`, in [1] (setting [10]), the EC50 was determined as 57.9 µM. Besides, in [2], the CC50 at 48 h was 101 µM and the MNTC at 48 h came out at 15.6 µg/mL. Moreover, in [3], the selectivity ratio was 1.75. Besides, in series [4], the “inhibition (INH)” value is given as 41.26%.
The matching figures for `COc1cccc(CSc2nc3cc4ccccc4cc3c(=O)n2Cc2ccccc2)c1`: 67.8 µM, 82.7 µM, 7.8 µg/mL, 1.22 and 24.48%.
Regarding `O=c1c2cc3ccccc3cc2nc(SCc2ccc([N+](=O)[O-])cc2)n1Cc1ccccc1`, the EC50 result in series [1] (vero) is on record as “Not Active”. In [2], the CC50 at 48 h turned out to be 48.2 µg/mL and the MNTC at 48 h amounted to 31.2 µg/mL. In addition, the “Ratio CC50/EC50” value in series [3] was “Not Active”. The “inhibition (INH)” value in [4] is 0%.
On to `NNc1nc2cc3ccccc3cc2c(=O)n1CCc1ccccc1`, for which the EC50 in series [1] (setting [10]) worked out at 18 µM. This compound also gave a CC50 at 48 h in [2] of 569 µM. Further, in series [2], the MNTC at 48 h came out at 31.2 µg/mL. Moreover, the selectivity ratio in [3] amounted to 31.6. The “inhibition (INH)” value in [4] was 79.81%. Besides, the IC50 in [5] was in the range of 5.92 to 18 µM. Also, the inhibition was 78.8% in the series with Hepatovirus A [6], 51.5% in the series on Hepatovirus A [7], 33% in the series on Hepatovirus A [8] and 13.3% with Hepatovirus A [9].
`COc1cccc(CSc2nc3cc4ccccc4cc3c(=O)n2CCc2ccccc2)c1`: the EC50 in series [1] (setting [10]) amounted to 61.7 µM. Besides, in [2], the CC50 at 48 h was 145 µM and the MNTC at 48 h is 31.2 µg/mL. For the same compound, the selectivity ratio in series [3] was determined as 2.36. For the same compound, the “inhibition (INH)” value in [4] is recorded as 54.32%.
Consider `N#Cc1cccc(CSc2nc3cc4ccccc4cc3c(=O)n2Cc2ccccc2)c1`, for which the EC50 in series [1] (setting [10]) came to 164 µM. Also, in [2], the CC50 at 48 h came out at 380 µM and the MNTC at 48 h is 62.5 µg/mL. In addition, the selectivity ratio in series [3] was determined as 2.32. Besides, the “inhibition (INH)” value in series [4] amounted to 41.94%.
As for `N#Cc1ccc(CSc2nc3cc4ccccc4cc3c(=O)n2CCc2ccccc2)cc1`, in series [1] (vero), the EC50 result is “Not Active”. Also, in [2], half-maximal cytotoxicity (CC50 at 48 h) was put at 86.3 µg/mL and the MNTC at 48 h is 15.6 µg/mL. Also, the “Ratio CC50/EC50” value in [3] is given as “Not Active”. Besides, the “inhibition (INH)” value in [4] is on record as 2.88%.
Turning to `C=CCSc1nc2cc3ccccc3cc2c(=O)n1CCc1ccccc1`, the EC50 entry in [1] (vero) is given as “Not Active”. In series [2], it took 164 µg/mL to reach half-maximal cytotoxicity (CC50 at 48 h) and the MNTC at 48 h was 62.5 µg/mL. For the same compound, in series [3], the “Ratio CC50/EC50” value is “Not Active”. For the same compound, the “inhibition (INH)” value in [4] is 3.54%.
On to `N#Cc1cccc(CSc2nc3cc4ccccc4cc3c(=O)n2CCc2ccccc2)c1`, for which, in series [1] (setting [10]), the EC50 was 130 µM. In series [2], the CC50 at 48 h was 163 µM and the MNTC at 48 h is 31.2 µg/mL. For the same compound, the selectivity ratio in series [3] came out at 1.25. The “inhibition (INH)” value in series [4] came to 23.49%.
As to `Cc1cccc(CSc2nc3cc4ccccc4cc3c(=O)n2Cc2ccccc2)c1`, the EC50 in series [1] (setting [10]) is 90.3 µM. In series [2], half-maximal cytotoxicity (CC50 at 48 h) was put at 506 µM and the MNTC at 48 h came out at 62.5 µg/mL. In addition, the selectivity ratio in [3] came to 5.61. Further, in series [4], the “inhibition (INH)” value was 58.76%.
The matching figures for `O=c1c2cc3ccccc3cc2[nH]c(=S)n1CCc1ccccc1`: 128 µM, 391 µM, 31.2 µg/mL, 3.06 and 46.36%.
In the case of `O=c1c2cc3ccccc3cc2[nH]c(=S)n1Cc1ccccc1`, in [1] (setting [10]), the EC50 is 36.7 µM. Also, half-maximal cytotoxicity in series [2] (CC50 at 48 h) was put at 180 µM. Also, in series [2], the MNTC at 48 h was found to be 15.6 µg/mL. In addition, the selectivity ratio in series [3] was found to be 4.91. Moreover, in series [4], the “inhibition (INH)” value is given as 67.18%. Besides, the IC50 in series [5] lay in the range of 3.3 to 36.7 µM. Moreover, the inhibition is 86% in the series with Hepatovirus A [6], 64.8% in the series on Hepatovirus A [7], 37.5% in the series with Hepatovirus A [8] and 9.85% in the series with Hepatovirus A [9].
Consider `N#Cc1ccccc1CSc1nc2cc3ccccc3cc2c(=O)n1Cc1ccccc1`, for which the EC50 in [1] (setting [10]) was 43.7 µM. For the same compound, in series [2], half-maximal cytotoxicity (CC50 at 48 h) was put at 53.5 µM and the MNTC at 48 h is 7.8 µg/mL. In [3], the selectivity ratio amounted to 1.23. For the same compound, in [4], the “inhibition (INH)” value was 39.58%.
